Measured values published in paper PMC10822116 (Drug Design, Development and Therapy, 2024).

Experiments:
eqBuChE = eqBuChE (Equus caballus, UniProt P81908); assay: BuChE inhibition, Ellman spectrophotometry; assay type: biochemical, equine; conditions: more potent than donepezil
[1] = biological target: human recombinant BuChE (hBuChE) (Homo sapiens, UniProt P06276); assay: BuChE inhibition, Ellman spectrophotometry; assay type: biochemical; conditions: stronger than donepezil
PC12 cells = assay: CCK-8 cytotoxicity in PC12 cells; assay type: cell-based; conditions: 24 h
BV-2 cells = assay: CCK-8 cytotoxicity in BV-2 cells; assay type: cell-based; conditions: 24 h
Kunming mice = assay: In vivo acute toxicity
[2] = tested on: mice with scopolamine-induced memory impairment; assay: Step-down passive avoidance test, scopolamine-induced memory impairment; assay type: in vivo
[3] = 7d 5, 10, 20 mg/kg oral, scopolamine 3 mg/kg i.p., dose-dependent
[4] = high-dose 20 mg/kg oral vs donepezil 10 mg/kg
[5] = medium-dose 10 mg/kg oral vs donepezil 10 mg/kg

Chain of eqBuChE (P81908 whole entry): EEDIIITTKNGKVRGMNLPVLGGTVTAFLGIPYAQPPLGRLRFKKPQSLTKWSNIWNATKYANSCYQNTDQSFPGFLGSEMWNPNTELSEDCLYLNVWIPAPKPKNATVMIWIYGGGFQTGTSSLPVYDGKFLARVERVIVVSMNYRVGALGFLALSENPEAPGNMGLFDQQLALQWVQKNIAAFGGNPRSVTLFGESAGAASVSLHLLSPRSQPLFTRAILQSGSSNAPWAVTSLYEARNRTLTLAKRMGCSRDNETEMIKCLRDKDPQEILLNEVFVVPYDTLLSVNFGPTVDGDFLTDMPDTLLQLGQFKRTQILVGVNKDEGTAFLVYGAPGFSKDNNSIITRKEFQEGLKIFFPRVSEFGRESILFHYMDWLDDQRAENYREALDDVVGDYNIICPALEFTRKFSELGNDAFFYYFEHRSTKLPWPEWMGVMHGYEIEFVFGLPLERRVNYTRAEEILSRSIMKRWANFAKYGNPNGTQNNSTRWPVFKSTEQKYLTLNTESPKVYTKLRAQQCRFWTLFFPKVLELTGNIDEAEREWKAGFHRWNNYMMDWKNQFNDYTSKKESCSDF
Chain of human recombinant BuChE (hBuChE) (P06276 29-602): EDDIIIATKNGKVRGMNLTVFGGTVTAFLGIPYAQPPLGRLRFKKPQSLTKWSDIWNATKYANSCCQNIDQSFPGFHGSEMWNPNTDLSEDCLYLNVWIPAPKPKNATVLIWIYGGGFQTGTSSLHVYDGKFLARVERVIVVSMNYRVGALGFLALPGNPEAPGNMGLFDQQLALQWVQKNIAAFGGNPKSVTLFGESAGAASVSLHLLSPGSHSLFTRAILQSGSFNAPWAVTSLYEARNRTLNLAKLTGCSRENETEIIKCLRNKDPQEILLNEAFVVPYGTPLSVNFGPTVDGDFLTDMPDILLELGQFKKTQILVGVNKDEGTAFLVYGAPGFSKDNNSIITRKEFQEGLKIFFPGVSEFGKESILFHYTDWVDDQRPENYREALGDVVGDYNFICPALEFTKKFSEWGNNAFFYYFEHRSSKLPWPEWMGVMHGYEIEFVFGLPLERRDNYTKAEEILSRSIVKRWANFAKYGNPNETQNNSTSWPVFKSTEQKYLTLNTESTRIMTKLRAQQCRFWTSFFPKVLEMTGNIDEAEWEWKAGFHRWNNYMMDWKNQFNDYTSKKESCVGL

C#CCN(C)CCCCCCCOCc1ccc(CN(C)c2c3c(nc4ccccc24)CCCC3)cc1 [Compound 7e, N-methyl-N-(4-(((7-(methyl(prop-2-yn-1-yl)amino)heptyl)oxy)methyl)benzyl)-1,2,3,4-tetrahydroacridin-9-amine]
eqBuChE potency relative to donepezil (eqBuChE): approximately 18 fold

C#CCN(C)CCCCCCCOc1cccc(CN(C)c2c3c(nc4ccccc24)CCCC3)c1 [Compound 6f, N-methyl-N-(3-((7-(methyl(prop-2-yn-1-yl)amino)heptyl)oxy)benzyl)-1,2,3,4-tetrahydroacridin-9-amine]
hBuChE potency relative to donepezil [1]: approximately 7 fold

C#CCN(C)CCCCCCOCc1ccc(CN(C)c2c3c(nc4ccccc24)CCCC3)cc1 [Compound 7d, N-methyl-N-(4-(((6-(methyl(prop-2-yn-1-yl)amino)hexyl)oxy)methyl)benzyl)-1,2,3,4-tetrahydroacridin-9-amine]
Effect on cell viability (PC12 cells; PC12, 0.325 to 2.5 μM): no significant effect
Effect on cell viability (PC12 cells; PC12, above 2.5 μM): decrease in cell viability
Cytotoxicity (BV-2 cells; BV-2, 10 μM): > 50%
Effect on cell viability (BV-2 cells; BV-2, 0.325 to 2.5 μM): no significant effect
Effect on cell viability (BV-2 cells; BV-2, above 2.5 μM): decrease in cell viability
Death, abnormal behavior or dietary changes (Kunming mice; KM mice, oral 625, 1250 and 2500 mg/kg, monitored 4 h): No such effects were observed
Average body weight change (Kunming mice; KM mice, single oral dose 625, 1250, 2500 mg/kg, 14 days, vs control group): comparable to that in the control group
Tissue damage (HE staining of heart, liver, kidney, lung, brain) (Kunming mice; mice, 2500 mg/kg oral, day 14): no obvious signs of tissue damage
Latency in step-down test [2, 3]: prolong the latency
Number of errors in step-down test [2, 3]: reduce the number of errors
Latency compared with donepezil [2, 4]: longer latency
Number of errors compared with donepezil [2, 4]: fewer errors
Number of errors compared to model group ([2]; low-dose 5 mg/kg oral, Kruskal–Wallis test, p = 0.2219): not statistically significant
Latency compared with donepezil [2, 5]: similar
Number of errors compared with donepezil [2, 5]: similar
